{"source": "paper PMC3082517", "about": "(PLoS Biology, 2011)", "key": {"TrkA [1]": {"target": "T1, TrkA (Rattus norvegicus, UniProt P35739)", "T1 sequence (P35739 33-799)": "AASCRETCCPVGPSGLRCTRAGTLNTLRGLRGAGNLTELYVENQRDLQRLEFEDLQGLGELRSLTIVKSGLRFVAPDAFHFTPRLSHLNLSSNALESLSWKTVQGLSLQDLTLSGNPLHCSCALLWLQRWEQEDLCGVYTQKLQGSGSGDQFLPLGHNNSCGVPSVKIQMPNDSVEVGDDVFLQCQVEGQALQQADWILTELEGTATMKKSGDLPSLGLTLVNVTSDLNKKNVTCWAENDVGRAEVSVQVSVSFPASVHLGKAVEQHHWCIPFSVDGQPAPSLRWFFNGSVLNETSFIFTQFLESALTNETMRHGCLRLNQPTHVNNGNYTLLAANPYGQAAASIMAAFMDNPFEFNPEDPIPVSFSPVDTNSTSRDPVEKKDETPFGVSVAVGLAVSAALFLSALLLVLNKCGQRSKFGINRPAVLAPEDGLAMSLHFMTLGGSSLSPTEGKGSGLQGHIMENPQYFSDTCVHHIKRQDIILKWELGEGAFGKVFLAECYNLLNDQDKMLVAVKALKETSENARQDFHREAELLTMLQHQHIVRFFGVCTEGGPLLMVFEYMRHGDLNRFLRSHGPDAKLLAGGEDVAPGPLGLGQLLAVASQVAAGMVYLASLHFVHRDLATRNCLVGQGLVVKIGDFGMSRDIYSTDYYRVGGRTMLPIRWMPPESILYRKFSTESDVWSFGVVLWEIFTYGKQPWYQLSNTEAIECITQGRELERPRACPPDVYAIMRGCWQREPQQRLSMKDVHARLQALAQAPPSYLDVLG", "experiment": "[125I]-NGF displacement, HEK293^TrkA cell membranes", "format": "binding", "set-up": "expressed in transfected cells; host or cells: HEK293", "details": "unpublished data"}, "p75^NTR [2]": {"target": "T2, p75^NTR (Rattus norvegicus, UniProt P07174)", "T2 construct": "expressed in transfected cells; host or cells: HEK293", "T2 sequence (P07174 30-425)": "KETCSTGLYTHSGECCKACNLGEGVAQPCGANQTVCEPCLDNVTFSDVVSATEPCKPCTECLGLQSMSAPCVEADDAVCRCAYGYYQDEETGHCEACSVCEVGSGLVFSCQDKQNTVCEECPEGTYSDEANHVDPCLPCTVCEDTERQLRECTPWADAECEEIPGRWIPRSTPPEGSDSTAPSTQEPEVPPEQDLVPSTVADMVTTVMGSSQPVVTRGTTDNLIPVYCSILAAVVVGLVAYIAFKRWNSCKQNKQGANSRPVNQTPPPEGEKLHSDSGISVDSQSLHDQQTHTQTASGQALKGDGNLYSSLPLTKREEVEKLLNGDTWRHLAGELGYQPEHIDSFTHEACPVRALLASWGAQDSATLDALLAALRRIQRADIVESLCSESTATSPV", "experiment": "[3H]-DHEA saturation binding to membranes of HEK293 cells transfected with p75NTR cDNA", "details": "KD of [3H]-DHEA binding (Scatchard analysis), n = 3"}, "TrkA [3]": {"target": "T1, TrkA", "experiment": "Tyr490 TrkA phosphorylation in naive PC12 cells (Western blot)", "format": "cell-based", "set-up": "PC12 cells, endogenously expressing TrkA receptors; endogenous in cells; host or cells: PC12", "details": "10 min, DHEA 100 nM, NGF 100 ng/ml", "description": "(§1) PC12 or HEK293 cells lysates were electrophoresed through a 12% SDS-polyacrylamide gel, and then proteins were transferred to nitrocellulose membranes, which were processed according to standard Western blotting procedures, as previously described. To detect protein levels, membranes were incubated with the appropriate antibodies: Bcl-2 (dilution 1∶500), phospho TrkA (dilution 1∶500), total TrkA (dilution1∶500), p75^NTR (dilution 1∶500), phospho Shc (dilution 1∶1000), total Shc (dilution 1∶1000), phospho Akt (dilution 1∶500), total Akt (dilution 1∶500), phospho ERK1/2 (dilution 1∶500), and total ERK1/2 (dilution 1∶500). Proteins were visualized using the ECL Western blotting kit (ECL Amersham Biosciences, UK), and blots were exposed to Kodak X-Omat AR films. A PC-based Image Analysis program was used to quantify the intensity of each band (Image Analysis, Inc., Ontario, Canada).\n(§2) To normalize for protein content the blots were stripped and stained with GAPDH antibody (dilution 1∶1000); the concentration of each target protein was normalized versus GAPDH. Where phosphorylation of TrkA or kinases was measured, membranes were first probed for the phosphorylated form of the protein, then stripped, and probed for the total protein."}, "nnr5 cells": {"test_system": "nnr5 cells", "experiment": "Apoptosis of nnr5 cells (PC12 clone expressing only p75NTR)", "format": "cell-based", "details": "DHEA 100 nM, NGF 100 ng/ml", "description": "PC12 cells were obtained from LGC Promochem (LGC Standards GmbH, Germany) and nnr5 cells from Dr. C.F. Ibáñez (Karolinska Institute). Both cell types were grown in RPMI 1640 containing 2 mM L-glutamine, 15 mM HEPES, 100 units/ml penicillin, 0.1 mg/ml streptomycin, and 10% horse serum, 5% fetal calf serum (both charcoal-stripped for removing endogenous steroids) at 5% CO2 and 37°C. HEK-293 cells were obtained from LGC Promochem. Cells were grown in DMEM medium containing 10% fetal bovine serum (charcoal-stripped for removing endogenous steroids), 100 units/ml penicillin, and 0.1 mg/ml streptomycin, at 5% CO2 and […]. HEK-293 and PC12 cells were transfected with Lipofectamine 2000 (InVitrogen) according to manufacturer's instructions. Transfected cells were typically used on the 2nd day after transfection.\n(§3) PC12 cells were cultured in 12-well plates, and 24 h later they were transfected with the si/shRNAs for TrkA and/or p75^NTR. […] Apoptosis was quantified 24 h later with annexin V-FITC and PI (BD Pharmingen) according to our protocol."}, "PC12 cell membranes": {"test_system": "PC12 cell membranes", "experiment": "[3H]-DHEA saturation binding to PC12 cell membranes", "details": "membranes from PC12 cells transfected with siRNA against GAPDH; listed as [^3H]-DHEA; read-out: KD of [3H]-DHEA binding (Scatchard analysis)"}, "PC12 cells": {"test_system": "PC12 cells", "experiment": "Apoptosis of serum deprived PC12 cells, FACS Annexin V-FITC and PI", "format": "cell-based", "details": "serum free, 100 nM, 24 h, n = 8; serum free control 53.5%±17.6%", "description": "as §3"}, "p75^NTR [4]": {"test_system": "p75^NTR", "experiment": "p75NTR protein levels in serum deprived PC12 cells (immunoblotting)", "format": "cell-based", "details": "serum deprived PC12, between 24 and 48 h; 100 nM DHEA, 100 ng/ml NGF; n = 5, p<0.01", "description": "as §1, §2"}, "TrkA [5]": {"target": "T1, TrkA", "experiment": "TrkA phosphorylation in HEK293^TrkA transfectants (anti-tyrosine IP, Western blot)", "format": "cell-based", "set-up": "expressed in transfected cells; host or cells: HEK293", "details": "10 min (and 20 min), steroids 100 nM, NGF 100 ng/ml", "description": "(§4) HEK293 cells were transfected with the appropriate plasmids (TrkA, p75^NTR, RIP2, TRAF-6, and RhoGDI) by using Lipofectamine 2000 (Invitrogen). Cells were harvested 48 h after transfection and suspended in lysis buffer (50 mM Tris-HCl, 0.15 M NaCl, 1% Triton-X100, pH 7.4) supplemented with protease inhibitors. Lysates were precleared for 1 h with Protein A-Sepharose beads (Amersham) and immunoprecipitated with the appropriate antibody (pTyr, Flag, or c-myc) overnight at 4°C. Protein A Sepharose beads were incubated with the lysates for 4 h at 4°C with gentle shaking. […] Beads were collected by centrifugation, washed four times with lysis buffer, and resuspended in SDS loading buffer. Proteins were separated by SDS/PAGE, followed by immunoblotting with specific antibodies.\nas §1, §2"}, "p75^NTR [6]": {"target": "T2, p75^NTR", "experiment": "[125I]-NGF displacement, HEK293^p75NTR cell membranes", "format": "binding", "details": "unpublished data"}, "[7]": {"target": "T3, p75^NTR with effectors TRAF6, RIP2, RhoGDI (Rattus norvegicus, UniProt P07174)", "T3 construct": "expressed in transfected cells; host or cells: HEK293", "T3 sequence (P07174 30-425)": "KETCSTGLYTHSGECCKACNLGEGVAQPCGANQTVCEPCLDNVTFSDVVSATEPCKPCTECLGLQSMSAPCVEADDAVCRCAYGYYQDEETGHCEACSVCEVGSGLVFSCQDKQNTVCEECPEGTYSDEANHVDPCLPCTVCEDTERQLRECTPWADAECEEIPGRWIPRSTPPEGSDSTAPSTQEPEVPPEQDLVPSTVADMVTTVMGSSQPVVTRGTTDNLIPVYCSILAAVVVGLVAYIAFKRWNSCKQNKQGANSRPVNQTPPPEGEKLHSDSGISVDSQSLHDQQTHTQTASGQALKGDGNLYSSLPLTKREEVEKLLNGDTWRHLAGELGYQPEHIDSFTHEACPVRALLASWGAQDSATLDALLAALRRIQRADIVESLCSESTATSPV", "experiment": "Co-immunoprecipitation of p75NTR with effectors TRAF6, RIP2, RhoGDI in co-transfected HEK293 cells", "format": "cell-based", "details": "co-transfected HEK293, 30 min; 100 nM DHEA, 100 ng/ml NGF", "description": "as §4"}, "[8]": {"test_system": "Shc, ERK1/2, and Akt kinases", "experiment": "Phosphorylation of Shc, ERK1/2 and Akt kinases in PC12 cells (Western blot)", "format": "cell-based", "details": "serum deprived naive PC12 cells, 10 min; 100 nM DHEA, 100 ng/ml NGF", "description": "as §1, §2"}, "sympathetic SCG neurons": {"test_system": "sympathetic SCG neurons", "experiment": "NGF deprivation-induced apoptosis of superior cervical ganglia sympathetic neurons, Annexin V", "format": "cell-based, rat", "details": "100 nM DHEA, medium lacking NGF with anti-NGF antiserum", "description": "Cells were plated on collagen coated 24-well plates and cultured for 5 d prior to use."}, "TrkA [9]": {"test_system": "TrkA", "experiment": "TrkA protein levels in serum deprived PC12 cells (immunoblotting)", "format": "cell-based", "details": "serum deprived PC12, 12 to 48 h; 100 nM DHEA, 100 ng/ml NGF; n = 5, p<0.01", "description": "as §1, §2"}, "[10]": {"test_system": "TrkA positive sensory neurons of dorsal root ganglia", "experiment": "Apoptotic loss of sensory neurons in dorsal root ganglia of NGF null mouse embryos", "details": "ngf−/− embryos at E14, mothers treated daily with DHEA 2 mg", "quoted_text": "ngf+/− mice [13] were obtained from the Jackson Laboratory and maintained on C57BL/6 background. […] Animals were housed in cages maintained under a constant 12 h light–dark cycle at 21–23°C, with free access to food and tap water.\nMice heterozygous for the NGF null mutation were interbred to obtain mice homozygous for the NGF gene disruption and the first day of gestation determined by the discovery of a copulation plug. The mothers were treated daily with a subcutaneous injection of DHEA (2 mg/day) or vehicle (4.5% ethanol in 0.9% saline) starting from the third day after gestation. Animals were collected at E14. At the day of collection the mothers were deeply anesthetized with sodium pentobarbital (Dolethal 0.7 ml/kg i.p.) followed by transcardial perfusion with saline solution containing heparin for about 7 min, and with 4% PFA, 15% Picric Acid, 0.05% GA in phosphate buffer 0.1 M, for another 7 min. After the perfusion the embryos were collected and maintained in the same fixative overnight at 4°C. Embryos were then washed in 0.1 M phosphate buffer and cryoprotected by using 10% sucrose followed by 20% sucrose overnight at 4°C. Finally, embryos were frozen in OCT in iso-pentane over liquid nitrogen for 5 min and the frozen tissues were stored for later use at −80°C. The samples were sectioned (20 µm) and mounted onto Superfrost plus slides (Menzel-Glaser J1800AMNZ). Slides were left to air-dry overnight at room temperature (RT) and were then either used immediately or were fixed in cold acetone for 1 min and stored at −80°C for later use.\nStored or fresh slides were fixed for 15 min in cold acetone at 4°C and left to dry for 10 min at room temperature. They were then washed in PB 0.1 M, then in TBS, and incubated for 45 min with 10% horse serum in TBS-T 0.1%. […] Sections were incubated for 4 h at RT and overnight at 4°C; they were then washed in TBS-T 0.1% and the anti-rabbit secondary antibodies (Alexa Fluor 488 and Alexa Fluor 546, 1∶1000 in TBS-T 0.1%) were added for 6 h at RT. […]"}, "TrkA [11]": {"target": "T1, TrkA", "experiment": "[3H]-DHEA saturation binding to membranes of HEK293 cells transfected with TrkA cDNA", "set-up": "expressed in transfected cells; host or cells: HEK293", "details": "KD of [3H]-DHEA binding (Scatchard analysis), n = 3"}, "TrkA [12]": {"target": "T1, TrkA", "experiment": "Heterologous [3H]-DHEA displacement, HEK293^TrkA cell membranes", "format": "binding", "set-up": "expressed in transfected cells; host or cells: HEK293", "details": "HEK293^TrkA membranes"}, "p75^NTR [13]": {"target": "T2, p75^NTR", "experiment": "Heterologous [3H]-DHEA displacement, HEK293^p75NTR cell membranes", "format": "binding", "details": "HEK293^p75NTR membranes"}, "TrkA receptor": {"target": "TrkA receptor", "details": "extracellular and cytoplasmic juxtamembrane domains of TrkA; read-out: Kd of binding to TrkA receptor; cited from earlier work"}, "[14]": {"details": "1 nM [3H]-DHEA, read-out: IC50 of [3H]-DHEA displacement"}}, "note": "Structures can show the parent of a compound that is named as a salt."}
{"compound": "C[C@]12CC[C@H](O)CC1=CC[C@@H]1[C@@H]2CC[C@]2(C)C(=O)CC[C@@H]12", "note": "[DHEA, dehydroepiandrosterone]", "values": [{"measurement": "displacement of [125I]-NGF binding (in words)", "setting": "TrkA [1]", "value": "unable to effectively displace"}, {"measurement": "Kd", "setting": "p75^NTR [2]; 25°C for 30 min", "value": "5.6 ± 0.55", "unit": "nM"}, {"measurement": "Kd", "setting": "p75^NTR [2]; overnight incubation at 4°C", "value": "5.9 ± 1.7", "unit": "nM"}, {"measurement": "phosphorylation of TrkA (Tyr490)", "setting": "TrkA [3]", "value": "strongly induced"}, {"measurement": "effect on apoptosis of nnr5 cells", "setting": "nnr5 cells", "value": "induced apoptosis"}, {"measurement": "Kd", "setting": "PC12 cell membranes", "value": "1.07 ± 0.43", "unit": "nM"}, {"measurement": "increase of apoptosis (% of difference from serum supplemented cells)", "setting": "PC12 cells", "value": "6%±1.4%"}, {"measurement": "p75NTR receptor levels", "setting": "p75^NTR [4]", "value": "significantly decreased"}, {"measurement": "phosphorylation of TrkA", "setting": "TrkA [5]", "value": "strongly increased"}, {"measurement": "displacement of [125I]-NGF binding (in words)", "setting": "p75^NTR [6]", "value": "unable to effectively displace"}, {"measurement": "association of p75NTR with effectors TRAF6 and RIP2", "setting": "[7]", "value": "efficiently induced the association"}, {"measurement": "dissociation of RhoGDI from p75NTR receptors", "setting": "[7]", "value": "facilitating the dissociation"}, {"measurement": "phosphorylation of Shc, ERK1/2, and Akt kinases", "setting": "[8]", "value": "strongly increased"}, {"measurement": "effect on apoptotic sympathetic neurons after NGF withdrawal", "setting": "sympathetic SCG neurons", "value": "effectively compensated for NGF by decreasing the levels of apoptotic neurons"}, {"measurement": "TrkA receptor levels", "setting": "TrkA [9]", "value": "significantly increased"}, {"measurement": "Fluoro Jade C and Caspase 3 positive neurons in the DRG", "setting": "[10]", "value": "significantly reduced"}, {"measurement": "TUNEL-positive apoptotic neurons in the DRG", "setting": "[10]", "value": "decreased to levels shown in ngf+/− embryos"}, {"measurement": "TrkA positive staining in the DRG", "setting": "[10]", "value": "significant increase"}, {"measurement": "Kd", "setting": "TrkA [11]; 25°C for 30 min", "value": "7.4 ± 1.75", "unit": "nM"}, {"measurement": "Kd", "setting": "TrkA [11]; overnight incubation at 4°C", "value": "7.8 ± 3.1", "unit": "nM"}]}
{"compound": "C[C@]12CC[C@H](OS(=O)(=O)O)CC1=CC[C@@H]1[C@@H]2CC[C@]2(C)C(=O)CC[C@@H]12", "note": "[DHEAS, dehydroepiandrosterone sulfate]", "values": [{"measurement": "IC50", "setting": "TrkA [12]; [14]", "value": "6.1 ± 1.1", "unit": "nM"}, {"measurement": "phosphorylation of TrkA", "setting": "TrkA [5]", "value": "rapidly induced"}, {"measurement": "IC50", "setting": "p75^NTR [13]; [14]", "value": "8.1 ± 1.2", "unit": "nM"}]}
{"compound": "C[C@]12CC[C@@H]3c4ccc(O)cc4CC[C@H]3[C@@H]1CC[C@@H]2O", "note": "[Estradiol]", "values": [{"measurement": "displacement of [3H]-DHEA binding (in words)", "setting": "TrkA [12]; competitor 0.1 to 1000 nM", "value": "failed to displace"}, {"measurement": "displacement of [3H]-DHEA binding (in words)", "setting": "p75^NTR [13]; competitor up to 1000 nM", "value": "failed to displace"}]}
{"compound": "CN(C)CCC=C1c2ccccc2CCc2ccccc21", "note": "[amitriptyline]", "values": [{"measurement": "Kd", "setting": "TrkA receptor", "value": 3000, "unit": "nM"}]}
